Experiments:
nNOS dimers = target: T1, nNOS dimers (Rattus norvegicus, UniProt P29476); experiment: Sucrose density gradient centrifugation of nNOS; conditions: fully inhibitory concentrations
T1 construct: endogenous in cells; host or cells: rat GH3 pituitary cells
Protocol: Samples of nNOS were either unadjusted (control) or were adjusted to 50 μM C3-tris-malonyl-C60-fullerene and were applied to a 5-20% sucrose gradient containing 50 mM Mops, pH 7.4, 150 mM NaCl, 1 mM EGTA, 1 mM DTT, 0.3% CHAPSO, and 10 μM BH4, either without (control) or containing 50 μM C3-tris-malonyl-C60-fullerene. Gradients were run at 35,000 rpm for 18 h at 4° C. in an L5-L5 Beckman Ultracentrifuge using an SW41 rotor. Fractions (375 μL) were collected using an ISCO density gradient fractionator, Model 185. The fractions from the gradient were kept on ice and portions were assayed for cytochrome c reductase activity (measures both monomers and dimers) and citrulline forming activity (measures dimers exclusively). Hemoglobin (4.09S), catalyze (11.9S), and thyoglobulin (19.4S) were run in a separate tube as sedimentation markers.

nNOS [1] = target: T2, nNOS (Rattus norvegicus, UniProt P29476); experiment: Citrulline formation assay, nNOS; assay type: biochemical; conditions: read-out: IC50 for Inhibition of Citrulline Formation
T2 construct: endogenous in cells; host or cells: rat GH3 pituitary cells; enzyme purified on 2',5'-ADP-agarose and calmodulin-Affi Gel 15 agarose
Protocol: (§1) Neuronal NOS was purified from rat GH3 pituitary cells grown in Ham's F-10 supplemented with 12.5% horse serum and 3% fetal bovine serum. Cells were homogenized in 5 volumes of 50 mM Mops, pH 7.4, 1 mM EGTA, 1 mM DTT, 100 mM NaCl, 0.5% CHAPSO, 50 μM BH4, 100 μM leupeptin, and 10 μM E64. A postmitochondrial supernatant fraction was generated by centrifugation and was affinity-purified on 2′,5′ADP-agarose as reported previously (Wolff, D. J. and Datto, G. (1992) Biochem. J. 284:201-206). The affinity-purified proteins were eluted with 50 mM Mops, pH 7.4, 1 mM EGTA, 1 mM DTT, 5 mM NADPH, 0.1% CHAPSO, 150 mM NaCl, 50 μM BH4, 100 μM leupeptin, and 10 μM E64. […] Fractions containing nNOS as determined by citrulline formation assay were concentrated with a Centriprep 30 (Amicon).
Citrulline formation by NOS isoforms was measured in 150 μL reaction mixtures containing 30 mM Hepes, pH 7.5, 1 mM DTT, 120 nM L-[2,3-^3H]-arginine without or with unlabeled arginine, 1 mM EGTA, 0.85 mM Ca^2+ (when present), 6 μM CaM (calmodulin, when present), 100 μM NADPH, and 300 μM BH4. Incubations were initiated by the addition of enzyme and reaction mixtures incubated for 30 min at 30° C. in duplicate and reactions stopped and analyzed as described by Wolff and Datto (Wolff and Datto, 1992). […]

nNOS [2] = target: T2, nNOS; experiment: NO formation assay (oxyhemoglobin to methemoglobin), nNOS; assay type: biochemical; conditions: multisite, positively cooperative inhibition of nNOS NO formation
Protocol: as §1
Nitric oxide production over time was measured spectrophotometrically at 401 nm by the conversion of oxyhemoglobin to methemoglobin (Noack, E. et al. (1992) Neuroprotocols 1:133-139). […] Methemoglobin formation was monitored against a reference cuvette containing complete reaction mixture without enzyme. NO production was calculated using an extinction coefficient of 38 mM^−1 cm^−1 (Noack et al.,1992).

eNOS = target: T3, eNOS (Bos taurus, UniProt P29473); experiment: Citrulline formation assay, eNOS; assay type: biochemical, Bovine; conditions: read-out: IC50 for Inhibition of Citrulline Formation
T3 construct: Bovine pulmonary arterial endothelial NOS (ENOS) was prepared; from tissue; host or cells: bovine pulmonary arterial endothelium
Protocol: Bovine pulmonary arterial endothelial NOS (ENOS) was prepared and characterized as described previously (Wolff, D. J. et al. (1994) Arch. Biochem. Biophys. 312:360-366).
(§2) Citrulline formation by NOS isoforms was measured in 150 μL reaction mixtures containing 30 mM Hepes, pH 7.5, 1 mM DTT, 120 nM L-[2,3-^3H]-arginine without or with unlabeled arginine, 1 mM EGTA, 0.85 mM Ca^2+ (when present), 6 μM CaM (calmodulin, when present), 100 μM NADPH, and 300 μM BH4. Incubations were initiated by the addition of enzyme and reaction mixtures incubated for 30 min at 30° C. in duplicate and reactions stopped and analyzed as described by Wolff and Datto (Wolff and Datto, 1992). When citrulline formation was measured as a function of CaM concentration 1.5 mM Ca^2+ was employed in the assay Assay of NADPH-Oxidase Activity.

nNOS [3] = target: T2, nNOS; experiment: Cytochrome c reductase assay of nNOS; assay type: biochemical; conditions: at concentrations as high as 300 μM
Protocol: Neuronal NOS was purified from rat GH3 pituitary cells grown in Ham's F-10 supplemented with 12.5% horse serum and 3% fetal bovine serum. Cells were homogenized in 5 volumes of 50 mM Mops, pH 7.4, 1 mM EGTA, 1 mM DTT, 100 mM NaCl, 0.5% CHAPSO, 50 μM BH4, 100 μM leupeptin, and 10 μM E64. A postmitochondrial supernatant fraction was generated by centrifugation and was affinity-purified on 2′,5′ADP-agarose as reported previously (Wolff, D. J. and Datto, G. (1992) Biochem. J. 284:201-206). The affinity-purified proteins were eluted with 50 mM Mops, pH 7.4, 1 mM EGTA, 1 mM DTT, 5 mM NADPH, 0.1% CHAPSO, 150 mM NaCl, 50 μM BH4, 100 μM leupeptin, and 10 μM E64. The eluate was adjusted to contain 2.5 mM Ca^2+ and was adsorbed to a calmodulin-Affi Gel 15 agarose column equilibrated in 50 mM Mops, 1 mM EGTA, 2.5 mM Ca^2+ 0.1% CHAPSO, 150 mM NaCl, 25 μM arginine, 1 mM DTT, 50 μM BH4, 100 μM leupeptin, and 10 μM E64. […] Fractions containing nNOS as determined by citrulline formation assay were concentrated with a Centriprep 30 (Amicon).
The cytochrome c reductase activity of nNOS was determined as described previously, (Cooper et al. (2000) Arch. Biochem. Biophys. 375:183-194) in the presence of 1 mM EGTA, 2 mM Ca^2+, and 10 μg/ml CaM. An extinction coefficient of 21 mM^−1 cm^−1 (22) was used to quantify cytochrome c reduction.

iNOS = target: T4, iNOS (Mus musculus, UniProt P29477); experiment: Citrulline formation assay, iNOS; assay type: biochemical, murine; conditions: read-out: IC50 for Inhibition of Citrulline Formation
T4 construct: Expression of iNOS was induced with 5 μg/mL of Escherichia coli lipopolysaccharide and 50 units/mL of mouse γ-interferon; endogenous in cells; host or cells: RAW 264.7 macrophages induced with LPS and interferon-gamma; enzyme purified on 2',5'-ADP-agarose and DEAE-cellulose
Protocol: Cytokine-inducible NOS was purified from murine RAW 264.7 macrophages grown in DMEM/Hepes, pH 7.5, supplemented with 10% fetal bovine serum. Expression of iNOS was induced with 5 μg/mL of Escherichia coli lipopolysaccharide and 50 units/mL of mouse γ-interferon. Homogeneous preparation of the iNOS was obtained through sequential purification on 2′,5′-ADP-agarose and DEAE-cellulose as described previously (Bryk, R. and Wolff, R. (1998) Biochemistry 37:4844-4852). Purified iNOS was about 95% pure as judged by a Coomassie-stained SDS-PAGE.
as §2

nNOS [4] = target: T2, nNOS; experiment: NADPH-oxidase activity (NADPH consumption) of nNOS; assay type: biochemical
Protocol: Neuronal NOS was purified from rat GH3 pituitary cells grown in Ham's F-10 supplemented with 12.5% horse serum and 3% fetal bovine serum. Cells were homogenized in 5 volumes of 50 mM Mops, pH 7.4, 1 mM EGTA, 1 mM DTT, 100 mM NaCl, 0.5% CHAPSO, 50 μM BH4, 100 μM leupeptin, and 10 μM E64. A postmitochondrial supernatant fraction was generated by centrifugation and was affinity-purified on 2′,5′ADP-agarose as reported previously (Wolff, D. J. and Datto, G. (1992) Biochem. J. 284:201-206). The affinity-purified proteins were eluted with 50 mM Mops, pH 7.4, 1 mM EGTA, 1 mM DTT, 5 mM NADPH, 0.1% CHAPSO, 150 mM NaCl, 50 μM BH4, 100 μM leupeptin, and 10 μM E64. The eluate was adjusted to contain 2.5 mM Ca^2+ and was adsorbed to a calmodulin-Affi Gel 15 agarose column equilibrated in 50 mM Mops, 1 mM EGTA, 2.5 mM Ca^2+ 0.1% CHAPSO, 150 mM NaCl, 25 μM arginine, 1 mM DTT, 50 μM BH4, 100 μM leupeptin, and 10 μM E64. The column was washed with equilibration buffer containing 500 mM NaCl but without arginine, and nNOS was eluted with equilibration buffer containing 2.5 mM EGTA but without Ca^2+ or arginine. Fractions containing nNOS as determined by citrulline formation assay were concentrated with a Centriprep 30 (Amicon).
Standard reaction mixtures of 1 mL volume in quartz cuvettes contained 50 mM Hepes, pH 7.4, 150 μM NADPH, 6 μM CaM, 1 mM EGTA, 0.85 mM Ca^2+ and 0.15 μM BH4. Reactions were initiated by the addition of nNOS enzyme and NADPH consumption was measured from the change in light absorbance at 340 nm as compared to an identical reference cuvette without enzyme using an extinction coefficient of 6.22 mM^−1 cm^−1.

nNOS [5] = target: T5, nNOS; experiment: CaM antagonists inhibiting citrulline formation by nNOS at 6 nM CaM; assay type: biochemical, rat; conditions: 30-min incubation
T5 construct: Bovine brain calmodulin was prepared; endogenous in cells; host or cells: rat GH3 pituitary cells (nNOS); bovine brain (calmodulin)

T1 sequence (P29476 whole entry): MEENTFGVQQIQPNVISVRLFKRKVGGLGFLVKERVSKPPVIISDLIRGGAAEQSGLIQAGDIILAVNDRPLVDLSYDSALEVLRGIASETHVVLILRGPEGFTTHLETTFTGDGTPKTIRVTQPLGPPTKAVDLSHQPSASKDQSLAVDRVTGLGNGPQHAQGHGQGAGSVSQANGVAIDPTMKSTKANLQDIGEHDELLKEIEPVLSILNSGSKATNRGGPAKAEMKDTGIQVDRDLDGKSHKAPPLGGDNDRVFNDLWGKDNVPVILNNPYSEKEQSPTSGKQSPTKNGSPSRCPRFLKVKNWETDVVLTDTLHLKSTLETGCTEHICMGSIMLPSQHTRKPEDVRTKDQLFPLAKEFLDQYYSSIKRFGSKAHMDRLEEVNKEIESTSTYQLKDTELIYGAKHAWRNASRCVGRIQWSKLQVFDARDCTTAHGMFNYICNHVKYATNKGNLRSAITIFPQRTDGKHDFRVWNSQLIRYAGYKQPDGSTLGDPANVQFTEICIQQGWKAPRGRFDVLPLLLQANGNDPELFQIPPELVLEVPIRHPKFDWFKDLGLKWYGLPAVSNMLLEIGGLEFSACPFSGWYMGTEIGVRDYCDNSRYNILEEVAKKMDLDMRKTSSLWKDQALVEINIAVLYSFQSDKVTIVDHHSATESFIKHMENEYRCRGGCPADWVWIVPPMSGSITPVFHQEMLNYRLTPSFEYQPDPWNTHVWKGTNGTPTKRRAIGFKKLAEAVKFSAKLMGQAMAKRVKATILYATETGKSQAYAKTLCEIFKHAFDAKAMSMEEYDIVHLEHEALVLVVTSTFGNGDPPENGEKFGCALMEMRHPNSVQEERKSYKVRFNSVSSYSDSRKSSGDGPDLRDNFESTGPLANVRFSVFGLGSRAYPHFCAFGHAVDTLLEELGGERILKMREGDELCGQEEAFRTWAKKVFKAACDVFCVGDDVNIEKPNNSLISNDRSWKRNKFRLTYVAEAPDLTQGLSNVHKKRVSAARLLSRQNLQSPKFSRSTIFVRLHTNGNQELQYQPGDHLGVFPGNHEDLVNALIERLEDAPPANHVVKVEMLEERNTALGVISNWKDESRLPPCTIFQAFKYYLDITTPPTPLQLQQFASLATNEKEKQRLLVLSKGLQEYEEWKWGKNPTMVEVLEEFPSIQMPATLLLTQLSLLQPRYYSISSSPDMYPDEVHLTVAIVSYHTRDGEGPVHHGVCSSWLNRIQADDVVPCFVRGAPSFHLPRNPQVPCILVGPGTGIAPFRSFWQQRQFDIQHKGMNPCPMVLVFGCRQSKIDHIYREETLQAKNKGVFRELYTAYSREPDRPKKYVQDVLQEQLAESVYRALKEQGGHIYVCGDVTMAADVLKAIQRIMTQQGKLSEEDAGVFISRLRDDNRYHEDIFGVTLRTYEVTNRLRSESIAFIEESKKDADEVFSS

| IC50 (nNOS [5]) [µM] | Compound | dissociation of nNOS dimers into monomers (nNOS dimers) | IC50 (nNOS [1]) [µM] | Hill coefficient of inhibition (nNOS [2]) | IC50 (eNOS) [µM] | effects on cytochrome c reductase activity of nNOS (nNOS [3]) | IC50 (iNOS) [µM] | inhibition of arginine-independent NADPH-oxidase activity of nNOS (in words) (nNOS [4]) | IC50 (nNOS [4]; arginine-independent) [µM] |
| --- | --- | --- | --- | --- | --- | --- | --- | --- | --- |
|  | 1,2:18,36:31,32-Tris(methano)[60] fullerene-61, 61, 62, 62, 63, 63 hexa-carboxylic acid, (e,e,e) C3 symmetry isomer [C3-Tris malonyl adduct diacid] | did not produce a dissociation | 24 | 2.0 | 17 | no effects | 123 | inhibited | 22 |
|  | 1,2:34,35:40,41-tris(methano)[60] fullerene-61, 61, 62, 62, 63, 63 hexacarboxylic acid, (trans-3, trans-3, trans-3) D3 symmetry isomer [D3-Tris malonyl adduct diacid] |  | 86 |  | 143 |  | 317 | inhibited |  |
| 0.273 | Clc1ccc(C(c2ccc(Cl)cc2)n2cc[n+](CC(OCc3ccc(Cl)cc3Cl)c3ccc(Cl)cc3Cl)c2)cc1 (stereo not shown) [Calmidazolium] |  |  |  |  |  |  |  |  |

Reference: patent publication US20030027870A1, “Fullerene derivatives that modulate nitric oxide synthase and clamodulin activity” (priority 2001, published 2003)
